Laboratory results: ChEMBL document CHEMBL3286290, “In vitro screening of pentamidine analogs against bacterial and fungal strains” (Bioorg Med Chem Lett, 2014)
Converted amounts (≈) assume the structure as drawn. Structures can show the parent of a compound that is named as a salt.

Key:
Format in all cases: functional
Staphylococcus aureus [1] = assay: Antibacterial activity against Staphylococcus aureus ATCC 6538P assessed as growth inhibition by M7-A6 method
Pseudomonas aeruginosa [2] = assay: Antibacterial activity against Pseudomonas aeruginosa ATCC 15442 assessed as growth inhibition by M7-A6 method
Staphylococcus aureus [3] = assay: Antibacterial activity against Staphylococcus aureus ATCC 6538 assessed as growth inhibition by M7-A6 method
Micrococcus luteus [4] = assay: Antibacterial activity against Micrococcus luteus ATCC 10240 assessed as growth inhibition by M7-A6 method
Pseudomonas aeruginosa [5] = assay: Antibacterial activity against Pseudomonas aeruginosa ATCC 9027 assessed as growth inhibition by M7-A6 method
Candida albicans [6] = assay: Antifungal activity against Candida albicans ATCC 2091 assessed as growth inhibition by M7-A6 method
Bacillus cereus = assay: Antibacterial activity against Bacillus cereus ATCC 11778 assessed as growth inhibition by M7-A6 method
Bacillus subtilis = assay: Antibacterial activity against Bacillus subtilis ATCC 6633 assessed as growth inhibition by M7-A6 method
Micrococcus luteus [7] = assay: Antibacterial activity against Micrococcus luteus ATCC 9341 assessed as growth inhibition by M7-A6 method
Saccharomyces cerevisiae = assay: Antifungal activity against Saccharomyces cerevisiae ATCC 9763 assessed as growth inhibition by M7-A6 method
Escherichia coli [8] = assay: Antibacterial activity against Escherichia coli ATCC 8739 assessed as growth inhibition by M7-A6 method
Candida albicans [9] = assay: Antifungal activity against Candida albicans ATCC 10231 assessed as growth inhibition by M7-A6 method
[10] = Antifungal activity against Zygosaccharomyces rouxii ATCC 28253 assessed as growth inhibition by M7-A6 method
Escherichia coli [11] = assay: Antibacterial activity against Escherichia coli ATCC 10536 assessed as growth inhibition by M7-A6 method
Candida parapsilosis = assay: Antifungal activity against Candida parapsilosis ATCC 22019 assessed as growth inhibition by M7-A6 method; conditions: Lodderomyces parapsilosis
Aspergillus brasiliensis = assay: Antifungal activity against Aspergillus brasiliensis ATCC 16404 assessed as growth inhibition by M7-A6 method
Staphylococcus aureus [12] = assay: Antibacterial activity against penicillin, erythromycin, clindamycin, ciprofloxacin, methicillin-resistant Staphylococcus aureus 19K/11 assessed as growth inhibition by M7-A6 method
Staphylococcus aureus [13] = assay: Antibacterial activity against erythromycin, amikacin, clindamycin, ciprofloxacin, methicillin-resistant Staphylococcus aureus 15K/11 assessed as growth inhibition by M7-A6 method
Staphylococcus aureus [14] = assay: Antibacterial activity against penicillin, erythromycin, amikacin, clindamycin, ciprofloxacin, methicillin-resistant Staphylococcus aureus 495/11 assessed as growth inhibition by M7-A6 method
Staphylococcus aureus [15] = assay: Antibacterial activity against penicillin, erythromycin, amikacin, clindamycin, ciprofloxacin, methicillin-resistant Staphylococcus aureus 573/12 assessed as growth inhibition by M7-A6 method
Staphylococcus aureus [16] = assay: Antibacterial activity against penicillin, erythromycin, amikacin, clindamycin, ciprofloxacin, methicillin-resistant Staphylococcus aureus 572/12 assessed as growth inhibition by M7-A6 method

Structure (SMILES)	MIC (Staphylococcus aureus [1]) [µM]	MIC (Pseudomonas aeruginosa [2]) [µM]	MIC (Staphylococcus aureus [3]) [µM]	MIC (Micrococcus luteus [4]) [µM]	MIC (Pseudomonas aeruginosa [5]) [µM]	MIC (Candida albicans [6]) [µM]	MIC (Bacillus cereus) [µM]	MIC (Bacillus subtilis) [µM]	MIC (Micrococcus luteus [7]) [µM]	MIC (Saccharomyces cerevisiae) [µM]	MIC (Escherichia coli [8]) [µM]	MIC (Candida albicans [9]) [µM]	MIC [10] [µM]	MIC (Escherichia coli [11]) [µM]	MIC (Candida parapsilosis) [µM]	MIC (Aspergillus brasiliensis) [µM]	also measured
COc1cc(C(=N)N)cc(OC)c1OCCN(CCOc1c(OC)cc(C(=N)N)cc1OC)S(=O)(=O)c1ccccc1	70 (≈ 42.1 µg/mL)	7040 (≈ 4240 µg/mL)	70 (≈ 42.1 µg/mL)	7 (≈ 4.21 µg/mL)	7040 (≈ 4240 µg/mL)	7040 (≈ 4240 µg/mL)	88 (≈ 52.9 µg/mL)	70 (≈ 42.1 µg/mL)	2.8 (≈ 1.68 µg/mL)	7040 (≈ 4240 µg/mL)	7040 (≈ 4240 µg/mL)	7040 (≈ 4240 µg/mL)	7040 (≈ 4240 µg/mL)	7040 (≈ 4240 µg/mL)	7040 (≈ 4240 µg/mL)	7040 (≈ 4240 µg/mL)	–
N=C(N)c1ccc(OCCCCCOc2ccc(C(=N)N)cc2)cc1 [PENTAMIDINE HYDROCHLORIDE]	67	1670	22	4.4	1110	110	1.1	67	1.1	280	280	110	67	280	4.4	22	MIC (Staphylococcus aureus [12]): 140 µM; MIC (Staphylococcus aureus [13]): 1110 µM; MIC (Staphylococcus aureus [14]): 1110 µM; MIC (Staphylococcus aureus [15]): 140 µM; MIC (Staphylococcus aureus [16]): 560 µM
COc1cc(C(=N)N)cc(OC)c1OCCCCCOc1c(OC)cc(C(=N)N)cc1OC	54 (≈ 24.9 µg/mL)	4460 (≈ 2050 µg/mL)	54 (≈ 24.9 µg/mL)	18 (≈ 8.29 µg/mL)	1780 (≈ 820 µg/mL)	1780 (≈ 820 µg/mL)	110 (≈ 50.7 µg/mL)	89 (≈ 41 µg/mL)	3.5 (≈ 1.61 µg/mL)	4460 (≈ 2050 µg/mL)	220 (≈ 101 µg/mL)	890 (≈ 410 µg/mL)	110 (≈ 50.7 µg/mL)	220 (≈ 101 µg/mL)	890 (≈ 410 µg/mL)	8920 (≈ 4110 µg/mL)	–
N=C(N)c1ccc(OCCSCCOc2ccc(C(=N)N)cc2)cc1	140 (≈ 50.2 µg/mL)	2320 (≈ 832 µg/mL)	69.5 (≈ 24.9 µg/mL)	23 (≈ 8.24 µg/mL)	1740 (≈ 624 µg/mL)	140 (≈ 50.2 µg/mL)	69.5 (≈ 24.9 µg/mL)	140 (≈ 50.2 µg/mL)	4.6 (≈ 1.65 µg/mL)	290 (≈ 104 µg/mL)	140 (≈ 50.2 µg/mL)	140 (≈ 50.2 µg/mL)	70 (≈ 25.1 µg/mL)	580 (≈ 208 µg/mL)	23 (≈ 8.24 µg/mL)	70 (≈ 25.1 µg/mL)	MIC (Staphylococcus aureus [12]): 140 µM (≈ 50.2 µg/mL); MIC (Staphylococcus aureus [13]): 1160 µM (≈ 416 µg/mL); MIC (Staphylococcus aureus [14]): 2320 µM (≈ 832 µg/mL); MIC (Staphylococcus aureus [15]): 290 µM (≈ 104 µg/mL); MIC (Staphylococcus aureus [16]): 290 µM (≈ 104 µg/mL)
COc1cc(C(=N)N)cc(OC)c1OCCN(C)CCOc1c(OC)cc(C(=N)N)cc1OC	7610 (≈ 3620 µg/mL)	> 15200	7610 (≈ 3620 µg/mL)	1520 (≈ 723 µg/mL)	> 15200	> 15200	7610 (≈ 3620 µg/mL)	1520 (≈ 723 µg/mL)	760 (≈ 361 µg/mL)	–	7610 (≈ 3620 µg/mL)	> 15200	–	15200 (≈ 7240 µg/mL)	> 15200	–	–
N=C(N)c1ccc(OCCN(CCOc2ccc(C(=N)N)cc2)S(=O)(=O)c2ccccc2)cc1	49 (≈ 23.6 µg/mL)	1640 (≈ 790 µg/mL)	49 (≈ 23.6 µg/mL)	16 (≈ 7.71 µg/mL)	1640 (≈ 790 µg/mL)	210 (≈ 101 µg/mL)	16 (≈ 7.71 µg/mL)	82 (≈ 39.5 µg/mL)	100 (≈ 48.2 µg/mL)	210 (≈ 101 µg/mL)	210 (≈ 101 µg/mL)	210 (≈ 101 µg/mL)	10 (≈ 4.82 µg/mL)	210 (≈ 101 µg/mL)	100 (≈ 48.2 µg/mL)	8220 (≈ 3960 µg/mL)	–
COc1cc(C(=N)N)cc(OC)c1OCCOCCOc1c(OC)cc(C(=N)N)cc1OC	210 (≈ 97.1 µg/mL)	> 17000	210 (≈ 97.1 µg/mL)	51 (≈ 23.6 µg/mL)	> 17000	> 17000	17000 (≈ 7840 µg/mL)	420 (≈ 194 µg/mL)	17 (≈ 7.86 µg/mL)	–	17000 (≈ 7840 µg/mL)	> 17000	–	17000 (≈ 7840 µg/mL)	> 17000	–	–
COc1cc(C(=N)N)ccc1OCCN(C)CCOc1ccc(C(=N)N)cc1OC	8130 (≈ 3380 µg/mL)	> 16300	8130 (≈ 3380 µg/mL)	410 (≈ 170 µg/mL)	> 16300	> 16300	100 (≈ 41.5 µg/mL)	810 (≈ 337 µg/mL)	200 (≈ 83.1 µg/mL)	–	8130 (≈ 3380 µg/mL)	> 16300	–	16300 (≈ 6760 µg/mL)	> 16300	–	–
COc1cc(C(=N)N)ccc1OCCN(CCOc1ccc(C(=N)N)cc1OC)S(=O)(=O)c1ccccc1	42 (≈ 22.7 µg/mL)	7380 (≈ 4000 µg/mL)	42 (≈ 22.7 µg/mL)	42 (≈ 22.7 µg/mL)	7380 (≈ 4000 µg/mL)	370 (≈ 200 µg/mL)	42 (≈ 22.7 µg/mL)	42 (≈ 22.7 µg/mL)	15 (≈ 8.12 µg/mL)	180 (≈ 97.5 µg/mL)	370 (≈ 200 µg/mL)	92 (≈ 49.8 µg/mL)	180 (≈ 97.5 µg/mL)	740 (≈ 401 µg/mL)	370 (≈ 200 µg/mL)	7380 (≈ 4000 µg/mL)	–
CN(CCCCCN(C)c1ccc(C(=N)N)cc1)c1ccc(C(=N)N)cc1	120 (≈ 44 µg/mL)	> 19600	59 (≈ 21.6 µg/mL)	19.5 (≈ 7.15 µg/mL)	> 19600	120 (≈ 44 µg/mL)	59 (≈ 21.6 µg/mL)	98 (≈ 35.9 µg/mL)	3.9 (≈ 1.43 µg/mL)	240 (≈ 88 µg/mL)	9780 (≈ 3580 µg/mL)	120 (≈ 44 µg/mL)	120 (≈ 44 µg/mL)	9780 (≈ 3580 µg/mL)	20 (≈ 7.33 µg/mL)	9780 (≈ 3580 µg/mL)	–
COc1cc(C(=N)N)ccc1OCCOCCOc1ccc(C(=N)N)cc1OC	520 (≈ 209 µg/mL)	> 21000	260 (≈ 105 µg/mL)	520 (≈ 209 µg/mL)	> 21000	10500 (≈ 4230 µg/mL)	1050 (≈ 423 µg/mL)	2100 (≈ 845 µg/mL)	2100 (≈ 845 µg/mL)	10500 (≈ 4230 µg/mL)	2100 (≈ 845 µg/mL)	10500 (≈ 4230 µg/mL)	–	10500 (≈ 4230 µg/mL)	5260 (≈ 2120 µg/mL)	21000 (≈ 8470 µg/mL)	–
N=C(N)c1ccc(NCCOCCNc2ccc(C(=N)N)cc2)cc1	590 (≈ 201 µg/mL)	> 23700	590 (≈ 201 µg/mL)	71 (≈ 24.2 µg/mL)	> 23700	5920 (≈ 2020 µg/mL)	590 (≈ 201 µg/mL)	590 (≈ 201 µg/mL)	24 (≈ 8.17 µg/mL)	11800 (≈ 4030 µg/mL)	2370 (≈ 807 µg/mL)	5920 (≈ 2020 µg/mL)	5920 (≈ 2020 µg/mL)	11800 (≈ 4030 µg/mL)	71 (≈ 24.2 µg/mL)	5920 (≈ 2020 µg/mL)	–
COc1cc(C(=N)N)cc(OC)c1OCCN(CCOc1c(OC)cc(C(=N)N)cc1OC)S(=O)(=O)c1ccc(N)cc1	320 (≈ 197 µg/mL)	6410 (≈ 3950 µg/mL)	320 (≈ 197 µg/mL)	64 (≈ 39.5 µg/mL)	6410 (≈ 3950 µg/mL)	> 12800	320 (≈ 197 µg/mL)	320 (≈ 197 µg/mL)	38 (≈ 23.4 µg/mL)	> 12800	6410 (≈ 3950 µg/mL)	> 12800	–	6410 (≈ 3950 µg/mL)	> 12800	> 12800	–
N=C(N)c1ccc(OCCOCCOc2ccc(C(=N)N)cc2)cc1	550 (≈ 188 µg/mL)	11100 (≈ 3790 µg/mL)	550 (≈ 188 µg/mL)	11 (≈ 3.77 µg/mL)	11100 (≈ 3790 µg/mL)	> 22200	550 (≈ 188 µg/mL)	550 (≈ 188 µg/mL)	4.4 (≈ 1.51 µg/mL)	11100 (≈ 3790 µg/mL)	550 (≈ 188 µg/mL)	> 22200	–	550 (≈ 188 µg/mL)	66 (≈ 22.6 µg/mL)	> 22200	–
CN(CCOc1ccc(C(=N)N)cc1)CCOc1ccc(C(=N)N)cc1	10600 (≈ 3770 µg/mL)	> 21100	21100 (≈ 7500 µg/mL)	1060 (≈ 377 µg/mL)	> 21100	> 21100	1060 (≈ 377 µg/mL)	2110 (≈ 750 µg/mL)	1060 (≈ 377 µg/mL)	–	21100 (≈ 7500 µg/mL)	> 21100	–	21100 (≈ 7500 µg/mL)	10600 (≈ 3770 µg/mL)	–	–
COc1cc(C(=N)N)ccc1OCCN(CCOc1ccc(C(=N)N)cc1OC)S(=O)(=O)c1ccc(NC(C)=O)cc1	360 (≈ 216 µg/mL)	7160 (≈ 4290 µg/mL)	140 (≈ 83.8 µg/mL)	89 (≈ 53.3 µg/mL)	7160 (≈ 4290 µg/mL)	1430 (≈ 856 µg/mL)	72 (≈ 43.1 µg/mL)	720 (≈ 431 µg/mL)	72 (≈ 43.1 µg/mL)	1430 (≈ 856 µg/mL)	3580 (≈ 2140 µg/mL)	180 (≈ 108 µg/mL)	1430 (≈ 856 µg/mL)	3580 (≈ 2140 µg/mL)	360 (≈ 216 µg/mL)	7160 (≈ 4290 µg/mL)	–
